Here are results for 18 molecules from article PMC7307906, “Macrocyclic Modalities Combining Peptide Epitopes and Natural Product Fragments” (Journal of the American Chemical Society, 2020).

The target of experiment [1] is T1, Recombinant human SPSB2 (Homo sapiens, UniProt Q99619).
T1 construct: purchased Abcam ab134592
T1 sequence (Q99619 1-263): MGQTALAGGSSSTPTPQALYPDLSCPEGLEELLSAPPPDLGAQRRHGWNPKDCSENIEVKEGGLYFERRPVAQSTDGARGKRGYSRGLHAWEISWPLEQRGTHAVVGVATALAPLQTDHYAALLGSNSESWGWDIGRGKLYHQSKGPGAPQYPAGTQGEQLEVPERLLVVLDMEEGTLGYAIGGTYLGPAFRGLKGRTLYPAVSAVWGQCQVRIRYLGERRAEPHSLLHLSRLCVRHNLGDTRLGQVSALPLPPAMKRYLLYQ
The experiment is described as follows: Surface plasmon resonance (SPR) binding to immobilized hSPSB2. The conditions noted are these: for Kd: hSPSB2, mean ± SEM of three independent experiments; for fold improved binding affinity compared to disulfide-bridged peptide 24: hSPSB2, versus 24; for fold loss of binding for the minor diastereomer: SPR KD, hSPSB2, minor versus major diastereomer. The protocol: Example sensorgrams for selected PepNats D1−D4, D7, D8, D10, D12 and D18 interacting with immobilized hSPSB2 using SPR (red). Each PepNat was injected at 0.020 µM, 0.078 µM, 0.313 µM, 1.25 µM and 5 µM concentration in quick succession followed by a longer dissociation time. A binding kinetic model was fitted to each experimental trace (black). All experiments were conducted in triplicates. […]
to the elution profile of the crude product . The relevant fractions containing the desired product were collected, analyzed by RP-HPLC-MS and accordingly pooled and lyophilized.
HRMS were obtained on a Thermo Scientific LTQ Fleet Orbitrap mass spectrometer coupled to an Accela HPLC-System (HPLC column: Hypersyl GOLD, 50 mm x 1 mm, particle size 1.9 μm) equipped with an electron spray ionization source (ESI). The mass detection was recorded in the range of […]
2) B) Biochemical Assays Materials and Methods
Surface Plasmon Resonance (SPR)
All SPR experiments were conducted on a Biacore T200, S200 or 8K instrument (GE Healthcare) at 20 °C using HBS-P+ as running buffer (GE Healthcare). A CM5 sensor chip (GE Healthcare) was conditioned three times at 60 s using 50 mM NaOH, 1 M NaCl prior to standard NHS/EDC activation (e.g. amine coupling in the Biacore instruction manual) of the sensor surface for 420 s.
Recombinant human SPSB2 (product ID: ab134592, Abcam, Cambridge, UK) was diluted to 200 nM using 10 mM Sodium acetate pH 5. 5 and injected over the activated surface for 300 s. This surface and a surface subjected to only NHS/EDC activation were deactivated using 100 mM Tris -HCl, pH 8.0. The empty surface was used as a reference surface.
All PepNat and peptide reference interac tion experiments were conducted by diluting 10 mM DMSO stocks of PepNats and peptide references using digital dispensing (Tecan) to 10 µM, 2.5 µM, 625 nM, 156 nM and 40 nM or 1 µM, 250 nM, 63 nM, 16 nM and 4 nM. All concentrations were serially injected ov er both the SPSB2 containing - and empty surfaces using single -cycle kinetics (GE Healthcare). The resulting sensorgrams were reference - and blank subtracted prior to fitting of the data using a binding kinetic model (Biacore evaluation software).
DNA constructs, cell culturing, transfections and generation of stable cell lines DNA constructs and cell lines were employed as previously described by Durek et al.7 “cDNAs encoding human MC1 (Genbank accession number NM_002386), MC3 (NM_019888), and MC4 (NM_005912) and MC5 (NM_005913) were cloned into the pcDNA4/TO vector (ThermoFisher). In the constructs, a consensus Kozak sequence (GCCACC) was incorporated immediately before the start ATG. DNA was amplified, isolated and sequenced using standard techniques.
T-Rex™-293 cells (ThermoFisher) were cultured in DMEM medium, supplemented with 10% foetal bovine serum and 5 µg/ml blasticidin at 37°C in a humidified atmosphere with 10% CO2.
Lipofectamine 2000 (ThermoFisher) was used for transfections according to the manufacturer’s recommendations. Resistant polyclonal populations were generated by selection with Zeocin (0.3 mg/ml, ThermoFisher) for about two weeks after transfection. Individual clones were iso lated using flow cytometry, subsequently expanded, tested for responsiveness to [Nle 4, DPhe7]-α-Melanocyte Stimulating Hormone (NDP-α-MSH) and cryopreserved.” To induce receptor

The target in experiment [2] is T2, SPSB2 (Homo sapiens, UniProt Q99619).
T2 chain: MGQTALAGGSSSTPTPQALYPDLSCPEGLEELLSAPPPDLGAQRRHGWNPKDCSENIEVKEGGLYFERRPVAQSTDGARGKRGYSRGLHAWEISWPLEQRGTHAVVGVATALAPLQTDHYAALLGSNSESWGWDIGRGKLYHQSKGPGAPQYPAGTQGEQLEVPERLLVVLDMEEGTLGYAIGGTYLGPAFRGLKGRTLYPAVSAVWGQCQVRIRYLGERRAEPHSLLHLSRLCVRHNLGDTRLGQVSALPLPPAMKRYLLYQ
The experiment is described as follows: SPR. A general note: In SPR one partner is held on a chip, and binding of the other changes the refractive index at the surface.

Bridges are numbered along the chain shown (N, C = ends). Where no end group is shown, it is not given here. [ ]: non-standard residue; d: D form. pyrrolidinyl‑spirobarbiturate (VII) = not defined here; N‑phenyl fused di‑pyrrolidine (II) = not defined here; N‑methyl fused di‑pyrrolidine (I) = not defined here; ortho ether aromatic unit (VIII) = not defined here; NP‑inspired fragment III = not defined here; NMeF = CN[C@@H](Cc1ccccc1)C(=O)O; NMeL = CN[C@@H](CC(C)C)C(=O)O A value given as a limit tells only on which side of the number the result lay.

One may read the Kd as the free concentration of one partner at which half of the binding sites on the other are occupied at equilibrium, for simple one-to-one binding. As to `CC[C@H](C)[C@@H]1NC(=O)[C@H](CC(=O)O)NC(=O)[C@H](Cc2ccccc2)N(C)C(=O)[C@H]2N[C@@H](c3ccc(cc3)C(=O)NCCCC[C@@H](C(=O)NCC(N)=O)NC(=O)[C@H](CC(N)=O)NC(=O)[C@H](CC(N)=O)NC(=O)[C@H](CC(N)=O)NC1=O)[C@@H](C(=O)OC)[C@H]2C(=O)OC` [D4-minor, [IV-FDINNNK ]G], the “binding to SPSB2 (in words)” value in experiment [1] (SPR, hSPSB2) was “did not bind”. Further, the Kd in experiment [1] (SPR) was greater than 10000 nM.
In the case of `CC[C@H](C)[C@@H]1NC(=O)[C@H](CC(=O)O)NC(=O)[C@H](Cc2ccccc2)N(C)C(=O)[C@@H]2N[C@H](c3ccc(cc3)C(=O)NCCCC[C@@H](C(=O)NCC(N)=O)NC(=O)[C@H](CC(N)=O)NC(=O)[C@H](CC(N)=O)NC(=O)[C@H](CC(N)=O)NC1=O)C1(C(=O)N(C)C(=O)N(C)C1=O)[C@H]2c1ccccc1` [D7-major, [VII-FDINNNK ]G], the “fold improved binding affinity compared to disulfide-bridged peptide 24” value in experiment [1] (ratio of SPR KD) came out at 4 fold. Besides, in experiment [1] (ratio of SPR KD, hSPSB2, versus 26), the “fold higher affinity compared to ortho ether aromatic unit analogue 26” value was determined as 46 fold.
Turning to `CC[C@H](C)[C@@H]1NC(=O)[C@H](CC(=O)O)NC(=O)[C@H](Cc2ccccc2)N(C)C(=O)[C@@H]2N[C@H](c3ccc(cc3)C(=O)NCCC[C@@H](C(=O)NCC(N)=O)NC(=O)[C@H](CC(N)=O)NC(=O)[C@H](CC(N)=O)NC(=O)[C@H](CC(N)=O)NC1=O)[C@@H]1C(=O)N(C)C(=O)[C@@H]12` [D8-major, [I-FDINNNOrn ]G], in experiment [1] (SPR), the equilibrium dissociation constant (Kd) stood at 282 ± 93 nM.
Same read-out and setting: to `CC[C@H](C)[C@@H]1NC(=O)[C@H](CC(=O)O)NC(=O)[C@H](Cc2ccccc2)N(C)C(=O)[C@@H]2N[C@H](c3ccc(cc3)C(=O)NCC[C@@H](C(=O)NCC(N)=O)NC(=O)[C@H](CC(N)=O)NC(=O)[C@H](CC(N)=O)NC(=O)[C@H](CC(N)=O)NC1=O)[C@@H]1C(=O)N(C)C(=O)[C@@H]12` [D9-major, [I-FDINNNDab ]G] belongs 66 ± 8 nM; to `CC[C@H](C)[C@@H]1NC(=O)[C@H](CC(=O)O)NC(=O)[C@H](Cc2ccccc2)N(C)C(=O)[C@@H]2N[C@H](c3ccc(cc3)C(=O)NC[C@@H](C(=O)NCC(N)=O)NC(=O)[C@H](CC(N)=O)NC(=O)[C@H](CC(N)=O)NC(=O)[C@H](CC(N)=O)NC1=O)[C@@H]1C(=O)N(C)C(=O)[C@@H]12` [D10-major, [I-FDINNNDap ]G], 72 ± 16 nM.
Regarding `CC[C@H](C)[C@@H]1NC(=O)[C@H](CC(=O)O)NC(=O)[C@H](C(C)C)N(C)C(=O)[C@H]2N[C@@H](c3ccc(cc3)C(=O)NCCCC[C@@H](C(=O)NCC(N)=O)NC(=O)[C@H](CC(N)=O)NC(=O)[C@H](CC(N)=O)NC(=O)[C@H](CC(N)=O)NC1=O)[C@H]1C(=O)N(C)C(=O)[C@H]12` [D13-minor, [I-VDINNNK ]G], the “fold loss of binding for the minor diastereomer” value in experiment [1] came to 5 fold.
As for `CC[C@H](C)[C@@H]1NC(=O)[C@H](CC(=O)O)NC(=O)[C@@H](Cc2ccccc2)N(C)C(=O)[C@@H]2N[C@H](c3ccc(cc3)C(=O)NCCCC[C@@H](C(=O)NCC(N)=O)NC(=O)[C@H](CC(N)=O)NC(=O)[C@H](CC(N)=O)NC(=O)[C@H](CC(N)=O)NC1=O)[C@@H]1C(=O)N(C)C(=O)[C@@H]12` [D15-major, [I-fDINNNK ]G], in experiment [1] (SPR), the dissociation constant Kd was greater than 10000 nM.
For the molecule `CC[C@H](C)[C@@H]1NC(=O)[C@H](CC(=O)O)NC(=O)[C@H](Cc2ccccc2)N(C)C(=O)[C@@H]2N[C@H](c3ccc(cc3)C(=O)NC[C@@H](C(=O)NCC(N)=O)NC(=O)[C@H](CC(N)=O)NC(=O)[C@H](CC(N)=O)NC(=O)[C@H](CC(N)=O)NC1=O)[C@@H]1C(=O)N(c3ccccc3)C(=O)[C@@H]12` [D17-major, [II-FDINNNDap ]G], in experiment [1] (SPR), the dissociation constant (Kd) worked out at 1080 ± 76 nM.
Consider `CC[C@H](C)[C@@H]1NC(=O)[C@H](CC(=O)O)NC(=O)[C@H](C(C)C)N(C)C(=O)[C@@H]2N[C@H](c3ccc(cc3)C(=O)NCCCC[C@@H](C(=O)NCC(N)=O)NC(=O)[C@H](CC(N)=O)NC(=O)[C@H](CC(N)=O)NC(=O)[C@H](CC(N)=O)NC1=O)[C@@H]1C(=O)N(c3ccccc3)C(=O)[C@@H]12` [D18-major, [II-VDINNNK ]G], for which the “fold improved binding affinity compared to disulfide-bridged peptide 24” value in experiment [1] (ratio of SPR KD) is listed as 7 fold. In addition, the “fold improved binding affinity compared to cyclic peptide 25” value in experiment [1] (ratio of SPR KD, hSPSB2, versus 25) is recorded as 36 fold. Also, the “fold better affinity than 27” value in experiment [1] (ratio of SPR KD, hSPSB2, versus 27) is recorded as 40 fold.
For `CC[C@H](C)[C@@H]1NC(=O)[C@H](CC(=O)O)NC(=O)[C@H](C(C)C)N(C)C(=O)[C@H]2N[C@@H](c3ccc(cc3)C(=O)NCCCC[C@@H](C(=O)NCC(N)=O)NC(=O)[C@H](CC(N)=O)NC(=O)[C@H](CC(N)=O)NC(=O)[C@H](CC(N)=O)NC1=O)[C@H]1C(=O)N(c3ccccc3)C(=O)[C@H]12` [D18-minor, [II-VDINNNK ]G], the “fold loss of binding for the minor diastereomer” value in experiment [1] is 63 fold.

B1: PepNat D7-major (peptide)
chain: [NMeF]DINNNKG-NH2
modifications: bridge (positions not given here) via pyrrolidinyl‑spirobarbiturate (VII); reading uncertain; also: macrocycle via pyrrolidinyl-spirobarbiturate (VII)
With B1, the dissociation constant (Kd) in experiment [2] came out at 3.8 nM.

B2: PepNat D3-major (peptide)
chain: [NMeF]DINNNKG-NH2
modifications: bridge (positions not given here) via NP‑inspired fragment III; reading uncertain; also: macrocycle via NP-inspired fragment III
With B2, the dissociation constant Kd in experiment [2] came out at 309 nM.

B3: PepNat D12-major (peptide)
chain: [NMeL]DINNNKG-NH2
modifications: bridge (positions not given here) via N‑methyl fused di‑pyrrolidine (I); reading uncertain; also: macrocycle via N-methyl fused di-pyrrolidine (I)
Consider B3, for which, in experiment [2], the Kd was 10 nM.
Take VDINNNKG (macrocycle via N-phenyl fused di-pyrrolidine (II) minor diastereomer, N-Me-Val) [PepNat D18-minor]: in experiment [2], the Kd is 139 nM.

B4: cyclic peptidomimetic 26 (peptide)
chain: DINNN
modifications: bridge (positions not given here) via ortho ether aromatic unit (VIII); reading uncertain; also: cyclized via ortho ether aromatic unit (VIII), attachment points not given here
For B4, the affinity in experiment [2], expressed as Kd, was 175 nM.
Take Ac-DINNN [iNOS peptide 23]: in experiment [2], the affinity, expressed as Kd, was 237 nM.

B5: PepNat D2-major (peptide)
chain: [NMeF]DINNNKG-NH2
modifications: bridge (positions not given here) via N‑phenyl fused di‑pyrrolidine (II); reading uncertain; also: macrocycle via N-phenyl fused di-pyrrolidine (II)
In experiment [2], B5 had a dissociation constant Kd of 231 nM.
As to CVDINNNC (disulfide 1-8 (inferred)) [cyclic peptide 24], in experiment [2], the Kd was determined as 16 nM.
